US8044045B2, “Indazole-carboxamide compounds as 5-HT4 receptor agonists” (Theravance, Inc., priority 2004, dated 2011)

Assay: Pharmacokinetic study in the rat
Type: in vivo
Procedure: Aqueous solution formulations of test compounds were prepared in 0.1% lactic acid at a pH of between about 5 and about 6. Male Sprague-Dawley rats (CD strain, Charles River Laboratories, Wilmington, Mass.) were dosed with test compounds via intravenous administration (IV) at a dose of 2.5 mg/kg or by oral gavage (PO) at a dose of 5 mg/kg. The dosing volume was 1 mL/kg for IV and 2 mL/kg for PO administration. Serial blood samples were collected from animals pre-dose, and at 2 (IV only), 5, 15, and 30 min, and at 1, 2, 4, 8, and 24 hours post-dose. Concentrations of test compounds in blood plasma were determined by liquid chromatography-mass spectrometry analysis (LC-MS/MS) (MDS SCIEX, API 4000, Applied Biosystems, Foster City, Calif.) with a lower limit of quantitation of 1 ng/mL.
Standard pharmacokinetic parameters were assessed by non-compartmental analysis (Model 201 for IV and Model 200 for PO) using WinNonlin (Version 4.0.1, Pharsight, Mountain View, Calif.). The maximum in the curve of test compound concentration in blood plasma vs. time is denoted Cmax. The area under the concentration vs. time curve from the time of dosing to the last measurable concentration (AUC(0-t)) was calculated by the linear trapezoidal rule. Oral bioavailability (F(%)), i.e. the dose-normalized ratio of AUC(0-t) for PO administration to AUC(0-t) for IV administration, was calculated as: F(%)=AUCPO/AUCIV×DoseIV/DosePO×100%

[1] = male Sprague-Dawley rats, blood plasma, PO 5 mg/kg

With CC(=O)N1CCN(CCN2[C@@H]3CC[C@H]2CC(NC(=O)c2nn(C(C)C)c4ccccc24)C3)CC1 (stereo partly drawn) [Example 1, 1-isopropyl-1H-indazole-3-carboxylic acid {(1S,3R,5R)-8-[2-(4-acetylpiperazin-1-yl)ethyl]-8-azabicyclo[3.2.1]oct-3-yl}amide] the “AUC(0-t)” value [1] was 730 ng·h/mL, the Cmax [1] was 250 ng/mL and the “oral bioavailability (F(%))” value (rat, PO 5 mg/kg versus IV 2.5 mg/kg, dose-normalized AUC(0-t) ratio) was “about 100%”.
